Test results taken from patent US9695155B2, “Herbicidal substituted pyrimidinyloxy benzene compounds” (E. I. DU PONT DE NEMOURS AND COMPANY, priority 2013, dated 2017).

Key:
Assay in all cases: Test E postemergence
[1] = tested on: waterhemp; type: in vivo, Amaranthus rudis
From the text: (§1) Seeds of plant species selected from corn (Zea mays), soybean (Glycine max), velvetleaf (Abutilon theophrasti), lambsquarters (Chenopodium album), wild poinsettia (Euphorbia heterophylla), palmer pigweed (Amaranthus palmeri), waterhemp (common waterhemp, Amaranthus rudis), surinam grass (Brachiaria decumbens), large (Lg) crabgrass (Digitaria sanguinalis), Brazilian crabgrass (Digitaria horizontalis), fall panicum (Panicum dichotomiflorum), giant foxtail (Setaria faberii), green foxtail (Setaria viridis), goosegrass (Eleusine indica), johnsongrass (Sorghum halepense), ragweed (common ragweed, Ambrosia elatior), barnyardgrass (Echinochloa crus-galli), sandbur (southern sandbur, Cenchrus echinatus), arrowleaf sida (Sida rhombifolia), Italian ryegrass (Lolium multiflorum), dayflower (Virginia (VA) dayflower, Commelina virginica), field bindweed (Convolvulus arvensis), morningglory (Ipomoea coccinea), nightshade (eastern black nightshade, Solanum ptycanthum), kochia (Kochia scoparia), yellow nutsedge (Cyperus esculentus), cocklebur (common cocklebur, Xanthium strumarium), smartweed (ladysthumb smartweed, and hairy beggarticks (Bidens pilosa), were planted into a silt loam soil and treated preemergence with test chemicals formulated in a non-phytotoxic solvent mixture which included a surfactant.
(§2) At the same time, plants from these crop and weed species and also horseweed (Canada horseweed, Conyza canadensis), waterhemp_RES1, (ALS & Triazine resistant common waterhemp, Amaranthus rudis), and waterhemp_RES2, (ALS & HPPD resistant common waterhemp, Amaranthus rudis) were planted in pots containing Redi-Earth® planting medium (Scotts Company, 14111 Scottslawn Road, Marysville, Ohio 43041) comprising spaghnum peat moss, vermiculite, wetting agent and starter nutrients were treated with postemergence applications of test chemicals formulated in the same manner. Plants ranged in height from 2 to 18 cm for postemergence treatments (1- to 4-leaf stage). Treated plants and controls were maintained in a greenhouse for 14 to 21 days, after which time all species were compared to controls and visually evaluated. Plant response ratings, summarized in Table E, are based on a scale of 0 to 100 where 0 is no effect and 100 is complete control. A dash (-) response means no test result.

[2] = tested on: waterhemp_RES2 (ALS & HPPD resistant common waterhemp); type: in vivo, Amaranthus rudis
From the text: as §1, §2

[3] = tested on: Brazilian crabgrass; type: in vivo, Digitaria horizontalis
From the text: as §1, §2

[4] = tested on: soybean; type: in vivo, Glycine max
From the text: as §1, §2

[5] = Postemergence, 31 g ai/ha, scale 0 to 100
[6] = Postemergence, 62 g ai/ha, scale 0 to 100
[7] = Postemergence, 125 g ai/ha, scale 0 to 100
[8] = Postemergence, 250 g ai/ha, scale 0 to 100
[9] = postemergence, 16 g ai/ha, scale 0 to 100, 0 no effect, 100 complete control
[10] = postemergence, 8 g ai/ha, scale 0 to 100, 0 no effect, 100 complete control

| Compound | Plant response rating, Waterhemp [1, 5] | Plant response rating, Waterhemp [1, 6] | Plant response rating, Waterhemp [1, 7] | Plant response rating, Waterhemp [1, 9] | Plant response rating, Waterhemp_RES2 [2, 5] | Plant response rating, Waterhemp_RES2 [2, 6] | Plant response rating, Waterhemp_RES2 [2, 7] | Plant response rating, Waterhemp_RES2 [2, 9] | Plant response rating, Crabgrass, Brazil [3, 5] | Plant response rating, Crabgrass, Brazil [3, 6] | Plant response rating, Crabgrass, Brazil [3, 7] | Plant response rating, Crabgrass, Brazil [3, 9] | Plant response rating, Soybean [4, 5] | Plant response rating, Soybean [4, 6] | Plant response rating, Soybean [4, 7] | Plant response rating, Soybean [4, 9] | also measured |
| --- | --- | --- | --- | --- | --- | --- | --- | --- | --- | --- | --- | --- | --- | --- | --- | --- | --- |
| FC(F)(F)c1cnn(-c2ccccc2Oc2ncc(Cl)cn2)c1 [Compound 16] | 60 | 85 | 90 | 60 | 50 | 60 | 70 | 25 | 0 | 10 | 30 | 0 | 30 | 80 | 95 | 15 | Plant response rating, Waterhemp [1, 8]: 90; Plant response rating, Waterhemp_RES2 [2, 8]: 85; Plant response rating, Crabgrass, Brazil [3, 8]: 40; Plant response rating, Soybean [4, 8]: 95 |
| Clc1cnc(Oc2cccc(Br)c2-n2cc(Br)cn2)nc1 [Compound 65] | 70 | 75 | 95 | 50 | 90 | 95 | 98 | 80 | 10 | 10 | 15 | 0 | 20 | 50 | 98 | 20 | Plant response rating, Waterhemp [1, 10]: 60; Plant response rating, Crabgrass, Brazil [3, 10]: 0; Plant response rating, Soybean [4, 10]: 15 |
| Fc1cnc(Oc2ccccc2-n2cc(Br)cn2)nc1 [Compound 10, 2-[2-(4-bromo-1H-pyrazol-1-yl)phenoxy]-5-fluoropyrimidine] | – | – | – | – | – | – | – | – | – | – | – | – | – | – | – | – | pest or weed control at 31 g/ha ([1]; Amaranthus tuberculatus, post-emergence, Postemergence, 31 g ai/ha, scale 0 to 100, read-out: Plant response rating, Waterhemp): 80%; pest or weed control at 62 g/ha ([1]; Amaranthus tuberculatus, post-emergence, Postemergence, 62 g ai/ha, scale 0 to 100, read-out: Plant response rating, Waterhemp): 85%; pest or weed control at 125 g/ha ([1]; Amaranthus tuberculatus, post-emergence, Postemergence, 125 g ai/ha, scale 0 to 100, read-out: Plant response rating, Waterhemp): 95%; pest or weed control at 250 g/ha ([1]; Amaranthus tuberculatus, post-emergence, Postemergence, 250 g ai/ha, scale 0 to 100, read-out: Plant response rating, Waterhemp): 95%; pest or weed control at 31 g/ha ([2]; Amaranthus tuberculatus, post-emergence, Postemergence, 31 g ai/ha, scale 0 to 100, read-out: Plant response rating, Waterhemp_RES2): 60%; pest or weed control at 62 g/ha ([2]; Amaranthus tuberculatus, post-emergence, Postemergence, 62 g ai/ha, scale 0 to 100, read-out: Plant response rating, Waterhemp_RES2): 75%; pest or weed control at 125 g/ha ([2]; Amaranthus tuberculatus, post-emergence, Postemergence, 125 g ai/ha, scale 0 to 100, read-out: Plant response rating, Waterhemp_RES2): 80%; pest or weed control at 250 g/ha ([2]; Amaranthus tuberculatus, post-emergence, Postemergence, 250 g ai/ha, scale 0 to 100, read-out: Plant response rating, Waterhemp_RES2): 90%; pest or weed control at 16 g/ha ([2]; Amaranthus tuberculatus, post-emergence, postemergence, 16 g ai/ha, scale 0 to 100, 0 no effect, 100 complete control, read-out: Plant response rating, Waterhemp_RES2): 50%; pest or weed control at 31 g/ha ([3]; Digitaria horizontalis, post-emergence, Postemergence, 31 g ai/ha, scale 0 to 100, read-out: Plant response rating, Crabgrass, Brazil): 0%; pest or weed control at 62 g/ha ([3]; Digitaria horizontalis, post-emergence, Postemergence, 62 g ai/ha, scale 0 to 100, read-out: Plant response rating, Crabgrass, Brazil): 0%; pest or weed control at 125 g/ha ([3]; Digitaria horizontalis, post-emergence, Postemergence, 125 g ai/ha, scale 0 to 100, read-out: Plant response rating, Crabgrass, Brazil): 0%; pest or weed control at 250 g/ha ([3]; Digitaria horizontalis, post-emergence, Postemergence, 250 g ai/ha, scale 0 to 100, read-out: Plant response rating, Crabgrass, Brazil): 5%; pest or weed control at 16 g/ha ([3]; Digitaria horizontalis, post-emergence, postemergence, 16 g ai/ha, scale 0 to 100, 0 no effect, 100 complete control, read-out: Plant response rating, Crabgrass, Brazil): 0%; plant response (crop injury) rating, soybean, 0-100 scale at 31 g/ha ([4]; Glycine max, post-emergence, Postemergence, 31 g ai/ha, scale 0 to 100): 50%; plant response (crop injury) rating, soybean, 0-100 scale at 62 g/ha ([4]; Glycine max, post-emergence, Postemergence, 62 g ai/ha, scale 0 to 100): 75%; plant response (crop injury) rating, soybean, 0-100 scale at 125 g/ha ([4]; Glycine max, post-emergence, Postemergence, 125 g ai/ha, scale 0 to 100): 90%; plant response (crop injury) rating, soybean, 0-100 scale at 250 g/ha ([4]; Glycine max, post-emergence, Postemergence, 250 g ai/ha, scale 0 to 100): 95%; plant response (crop injury) rating, soybean, 0-100 scale at 16 g/ha ([4]; Glycine max, post-emergence, postemergence, 16 g ai/ha, scale 0 to 100, 0 no effect, 100 complete control): 30% |
